This is an account of results in the supplement of paper PMC10307832.

Holding throughout (test): relative viability (nuclei count vs DMSO), 5 days (fraction); higher = more cells survive
Compound in assay [1]: CC1=CC(=NN1)NC2=CC(=NC(=N2)/C=C/C3=CC=CC=C3)N4CCN(CC4)C + Cc1nc(NC(=O)N2CCC[C@H]2C(N)=O)sc1-c1ccnc(C(C)(C)C(F)(F)F)c1 [Alpelisib] (partner 2 µM)
Put shortly:
(§1)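 One day after seeding in 1536-well plates, lung cancer cell lines were dosed by pin tool. Dosing was either single-drug or a fixed anchor-drug dose plus five library-drug doses (not always all listed) in √10 steps. After 5 days, nuclei were stained in one fix-and-stain step and counted on 4× images, and relative viability is the nuclei count of treated wells over that of vehicle wells, given as the median of duplicate plates.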

Compound in assay [2]: CC(C)C[C@H](NC(=O)[C@H](Cc1ccccc1)NC(=O)c1cnccn1)B(O)O [Bortezomib] + CS(=O)(=O)CCNCc1ccc(-c2ccc3ncnc(Nc4ccc(OCc5cccc(F)c5)c(Cl)c4)c3c2)o1 [Lapatinib] (partner 2 µM)
The essentials:
as §1

Compound in assay [3]: CC(C)C[C@H](NC(=O)[C@H](Cc1ccccc1)NC(=O)c1cnccn1)B(O)O [Bortezomib] + CC(=O)Nc1cccc(-n2c(=O)n(C3CC3)c(=O)c3c(Nc4ccc(I)cc4F)n(C)c(=O)c(C)c32)c1 [Trametinib] (partner 0.02 µM)
The essentials: as §1

Compound in assay [4]: CC(C)C[C@H](NC(=O)[C@H](Cc1ccccc1)NC(=O)c1cnccn1)B(O)O [Bortezomib] + O=C(CCCCCCC(=O)Nc1ccccc1)NO [Vorinostat] (partner 1 µM)
Put shortly: as §1

Regarding NCI-H650, the relative viability in assay [1] (first compound 0.08 µM) came out at 1.12; in assay [1] (first compound 0.253 µM), 1.19; in assay [1] (first compound 0.8 µM), 1.03; in assay [1] (first compound 2.53 µM), 0.811; in assay [1] (first compound 8 µM), 0.171; in assay [2] (first compound 0.000632 µM), 0.596. Besides, the relative viability in assay [2] (first compound 0.002 µM) worked out at 1.02; in assay [2] (first compound 0.006325 µM) it was 0.382; in assay [2] (first compound 0.02 µM) it was 0.175; in assay [3] (first compound 0.0002 µM), 0.936; in assay [3] (first compound 0.000632 µM), 1.1; in assay [3] (first compound 0.002 µM), 0.857. The relative viability in assay [3] (first compound 0.006325 µM) was found to be 0.361; in assay [3] (first compound 0.02 µM) it was 0.146; in assay [4] (first compound 0.0002 µM), 0.395; in assay [4] (first compound 0.000632 µM), 0.566; in assay [4] (first compound 0.002 µM) it was 0.452; in assay [4] (first compound 0.006325 µM), 0.429. In addition, the relative viability in assay [4] (first compound 0.02 µM) worked out at 0.121.
